According to patent US8193239B2, “Substituted 1-cyanoethylheterocyclylcarboxamide compounds” (AstraZeneca AB, priority 2009, dated 2012):
Where a name gives a salt, the structure may show the parent alone.

Target: Recombinant Human (rh) DPP1 (Homo sapiens, UniProt P53634)
Test: Fluorescence Assay for Recombinant Human (rh) DPP1
Format: biochemical
Conditions: rhDPP1, substrate H-Gly-Arg-AMC, pH5.0, 22° C., pre-incubated 30-60 min; read-out: DPP1 activity, pIC50 (converted)
Experimental: Fluorescence Assay for Recombinant Human (rh) DPP1
The activity of DPP1 was determined by measuring the enzymatic release of aminomethyl coumarin (AMC) from the peptide substrate (H-Gly-Arg-AMC), which leads to an increase in fluorescence intensity at λex=350 nm and λem=450 nm. The assay was carried out in black 384 well plates in a final volume of 50 μl at 22° C. The assay conditions contained the following: 25 mM piperazine buffer pH5.0; 50 mM NaCl, 5 mM DTT; 0.01% (v/v) Triton X-100; 100 μM H-Gly-Arg-AMC and rhDPP1 ([…]). […] A standard DPP1 inhibitor (vinyl sulfone, see below, or Example 24 from WO2009/074829) was used as a positive control in the assay. Routinely, inhibitors were pre-incubated with rhDPP1 for 30-60 min prior to the addition of the peptide substrate to start the reaction for a further 60 min at 22° C. After that the plates were immediately read in a fluorescence plate reader using the above emission and excitation wavelengths [modified from Kam, C M, Gotz, M G, Koot, G, McGuire, M J, Thiele, D L, Hudig, D & Powers, J C (2004). Arch Biochem Biophys, 427, 123-134 & McGuire, M J, Lipsky, P E & Thiele, D L (1992). Arch Biochem Biophys, 295, 280-288].

Chain of Recombinant Human (rh) DPP1 (P53634 231-394 limits assumed): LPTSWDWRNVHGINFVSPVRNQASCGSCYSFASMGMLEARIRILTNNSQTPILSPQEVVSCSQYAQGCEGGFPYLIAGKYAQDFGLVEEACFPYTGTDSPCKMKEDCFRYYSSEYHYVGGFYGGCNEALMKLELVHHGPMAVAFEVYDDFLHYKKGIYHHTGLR
Chain of Recombinant Human (rh) DPP1 (P53634 25-134 limits assumed): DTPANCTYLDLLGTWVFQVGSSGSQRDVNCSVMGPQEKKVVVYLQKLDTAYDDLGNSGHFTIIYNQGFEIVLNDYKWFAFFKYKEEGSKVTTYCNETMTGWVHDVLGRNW
Chain of Recombinant Human (rh) DPP1 (P53634 395-463 limits assumed): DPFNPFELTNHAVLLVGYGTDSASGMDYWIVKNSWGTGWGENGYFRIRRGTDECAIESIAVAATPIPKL

Row | IC50 [nM] | SMILES
1 | 0.631 | N#C[C@H](Cc1ccc(-c2ccc(C(F)(F)F)cc2)cc1)NC(=O)C1(N)CCOCC1 [Example 1, (S)-4-Amino-N-(1-cyano-2-(4′-(trifluoromethyl)biphenyl-4-yl)ethyl)tetrahydro-2H-pyran-4-carboxamide]
2 | 0.794 | CCS(=O)(=O)c1ccc(-c2ccc(C[C@@H](C#N)NC(=O)C3(N)CCOCC3)cc2)cc1 [Example 2, (S)-4-Amino-N-(1-cyano-2-(4′-(ethylsulfonyl)biphenyl-4-yl)ethyl)tetrahydro-2H-pyran-4-carboxamide]
3 | 0.398 | N#C[C@H](Cc1ccc(-c2ccc(F)cc2)cc1)NC(=O)C1(N)CCOCC1 [Example 4, (S)-4-Amino-N-(1-cyano-2-(4′-fluorobiphenyl-4-yl)ethyl)tetrahydro-2H-pyran-4-carboxamide]
4 | 1 | CC(C)S(=O)(=O)c1ccc(-c2ccc(C[C@@H](C#N)NC(=O)C3(N)CCOCC3)cc2)cc1 [Example 5, (S)-4-Amino-N-(1-cyano-2-(4′-(isopropylsulfonyl)biphenyl-4-yl)ethyl)tetrahydro-2H-pyran-4-carboxamide]
5 | 0.398 | CS(=O)(=O)Oc1ccc(-c2ccc(C[C@@H](C#N)NC(=O)C3(N)CCOCC3)cc2)cc1 [Example 6, (S)-4′-(2-(4-Aminotetrahydro-2H-pyran-4-carboxamido)-2-cyanoethyl)biphenyl-4-yl methanesulfonate trifluoroacetic acid salt, methanesulfonate trifluoroacetic acid …]
6 | 0.631 | N#C[C@H](Cc1ccc(-c2ccc(S(=O)(=O)N3CCC3)cc2)cc1)NC(=O)C1(N)CCOCC1 [Example 7, (S)-4-Amino-N-(2-(4′-(azetidin-1-ylsulfonyl)biphenyl-4-yl)-1-cyanoethyl)tetrahydro-2H-pyran-4-carboxamide trifluoroacetic acid salt]
7 | 0.794 | N#Cc1cccc(-c2ccc(C[C@@H](C#N)NC(=O)C3(N)CCOCC3)cc2)c1 [Example 8, (S)-4-Amino-N-(1-cyano-2-(3′-cyanobiphenyl-4-yl)ethyl)tetrahydro-2H-pyran-4-carboxamide]
8 | < 0.316 | COCCn1c(=O)sc2ccc(-c3ccc(C[C@@H](C#N)NC(=O)C4(N)CCOCC4)cc3)cc21 [Example 9, (S)-4-Amino-N-(1-cyano-2-(4-(3-(2-methoxyethyl)-2-oxo-2,3-dihydrobenzo[d]thiazol-5-yl)phenyl)ethyl)tetrahydro-2H-pyran-4-carboxamide trifluoroacetic acid salt]
9 | < 0.316 | CN1C(=O)COc2ccc(-c3ccc(C[C@@H](C#N)NC(=O)C4(N)CCOCC4)cc3)cc21 [Example 10, (S)-4-Amino-N-(1-cyano-2-(4-(4-methyl-3-oxo-3,4-dihydro-2H-benzo[b][1,4]oxazin-6-yl)phenyl)ethyl)tetrahydro-2H-pyran-4-carboxamide trifluoroacetic acid salt]
10 | < 0.316 | COCCCn1c(=O)oc2ccc(-c3ccc(C[C@@H](C#N)NC(=O)C4(N)CCOCC4)cc3)cc21 [Example 11, (S)-4-Amino-N-(1-cyano-2-(4-(3-(3-methoxypropyl)-2-oxo-2,3-dihydrobenzo[d]oxazol-5-yl)phenyl)ethyl)tetrahydro-2H-pyran-4-carboxamide trifluoroacetic acid salt]
11 | 0.501 | CS(=O)(=O)Oc1cccc(-c2ccc(C[C@@H](C#N)NC(=O)C3(N)CCOCC3)cc2)c1 [Example 12, (S)-4′-(2-(4-Aminotetrahydro-2H-pyran-4-carboxamido)-2-cyanoethyl)biphenyl-3-yl methanesulfonate]
12 | 0.316 | N#C[C@H](Cc1ccc(-c2ccc(F)c(F)c2)cc1)NC(=O)C1(N)CCOCC1 [Example 13, (S)-4-Amino-N-(1-cyano-2-(3′,4′-difluorobiphenyl-4-yl)ethyl)tetrahydro-2H-pyran-4-carboxamide trifluoroacetic acid salt]
13 | 0.126 | N#C[C@H](Cc1ccc(-c2ccc3c(c2)CNC3=O)cc1)NC(=O)C1(N)CCOCC1 [Example 15, (S)-4-Amino-N-(1-cyano-2-(4-(1-oxoisoindolin-5-yl)phenyl)ethyl)tetrahydro-2H-pyran-4-carboxamide]
14 | 1 | CN1Cc2cc(-c3ccc(C[C@@H](C#N)NC(=O)C4(N)CCOCC4)cc3)ccc2S1(=O)=O [Example 16, (S)-4-Amino-N-{cyano-2-[4-(2-methyl-1,1-dioxido-2,3-dihydro-1,2-benzisothiazol-5-yl)phenyl]ethyl}tetrahydro-2H-pyran-4-carboxamide trifluoroacetic acid salt]
15 | 0.316 | Cn1c(=O)oc2ccc(-c3ccc(C[C@@H](C#N)NC(=O)C4(N)CCOCC4)cc3)cc21 [Example 17, (S)-4-amino-N-(1-cyano-2-(4-(3-methyl-2-oxo-2,3-dihydrobenzo[d]oxazol-5-yl)phenyl)ethyl)tetrahydro-2H-pyran-4-carboxamide]
16 | 0.794 | Cc1ccc(-c2ccc(C[C@@H](C#N)NC(=O)C3(N)CCOCC3)cc2)cc1C#N [Example 18, (S)-4-Amino-N-(1-cyano-2-(3′-cyano-4′-methylbiphenyl-4-yl)ethyl)tetrahydro-2H-pyran-4-carboxamide trifluoroacetic acid salt]
17 | < 0.316 | Cc1cc(-c2ccc(C[C@@H](C#N)NC(=O)C3(N)CCOCC3)cc2)ccc1C#N [Example 19, (S)-4-Amino-N-(1-cyano-2-(4′-cyano-3′-methylbiphenyl-4-yl)ethyl)tetrahydro-2H-pyran-4-carboxamide trifluoroacetic acid salt]
18 | 0.794 | COc1ccc(-c2ccc(C[C@@H](C#N)NC(=O)C3(N)CCOCC3)cc2)cc1 [Example 20, (S)-4-Amino-N-(1-cyano-2-(4′-methoxybiphenyl-4-yl)ethyl)tetrahydro-2H-pyran-4-carboxamide]
19 | 0.251 | CN1C(=O)Cc2ccc(-c3ccc(C[C@@H](C#N)NC(=O)C4(N)CCOCC4)cc3)cc21 [Example 21, (S)-4-Amino-N-(1-cyano-2-(4-(1-methyl-2-oxoindolin-6-yl)phenyl)ethyl)tetrahydro-2H-pyran-4-carboxamide]
20 | < 0.398 | N#Cc1cc(-c2ccc(C[C@@H](C#N)NC(=O)C3(N)CCOCC3)cc2)ccc1F [Example 22, (S)-4-Amino-N-(1-cyano-2-(3′-cyano-4′-fluorobiphenyl-4-yl)ethyl)tetrahydro-2H-pyran-4-carboxamide]
21 | 0.631 | CS(=O)(=O)c1cccc(-c2ccc(C[C@@H](C#N)NC(=O)C3(N)CCOCC3)cc2)c1 [Example 23, (S)-4-Amino-N-(1-cyano-2-(3′-(methylsulfonyl)biphenyl-4-yl)ethyl)tetrahydro-2H-pyran-4-carboxamide trifluoroacetic acid salt]
22 | 0.2 | COCCn1c(=O)oc2ccc(-c3ccc(C[C@@H](C#N)NC(=O)C4(N)CCOCC4)cc3)cc21 [Example 24, (S)-4-Amino-N-(1-cyano-2-(4-(3-(2-methoxyethyl)-2-oxo-2,3-dihydrobenzo[d]oxazol-5-yl)phenyl)ethyl)tetrahydro-2H-pyran-4-carboxamide trifluoroacetic acid salt]
23 | 1.26 | N#C[C@H](Cc1ccc(-c2ccc(C(N)=O)c(F)c2)cc1)NC(=O)C1(N)CCOCC1 [Example 25, (S)-4-Amino-N-(2-(4′-carbamoyl-3′-fluorobiphenyl-4-yl)-1-cyanoethyl)tetrahydro-2H-pyran-4-carboxamide]
